The results in this text go back to US8268840B2, “Pyrimidinyl pyridone inhibitors of kinases” (Roche Palo Alto LLC, priority 2008, dated 2012).

For one series, the target named is Human JNK1α1 (Homo sapiens, UniProt P45983). In words: JNK assay in vitro, phosphorylation of GST-ATF2 (19-96) with [γ-33P] ATP. Type of series: biochemical. As to conditions: 2 nM enzyme, 1 μM ATF2, 6 μM ATP (Km), 30° C. for 30 min, ten concentration curves; read-out: IC50 JNK1. As for the experimental part:
(§1) JNK activity was measured by phosphorylation of GST-ATF2 (19-96) with [γ-^33P] ATP. The enzyme reaction was conducted at Km concentrations of ATP and the substrate at final volume of 40 μl in buffer containing 25 mM HEPES, pH 7.5, 2 mM dithiothreitol, 150 mM NaCl, 20 mM MgCl2, 0.001% Tween® 20, 0.1% BSA and 10% DMSO. Human JNK2α2 assay contains 1 nM enzyme, 1 μM ATF2, 8 μM ATP with 1 uCi [γ-^33P] ATP. Human JNK1α1 assay contains 2 nM enzyme, 1 μM ATF2, 6 μM ATP with 1 μCi [γ-^33P] ATP. Human JNK3 (Upstate Biotech #14-501M) assay contains 2 nM enzyme, 1 μM ATF2, 4 μM ATP with 1 μCi [γ-^33P] ATP. The enzyme assay was carried out in the presence or absence of several compound concentrations. JNK and compound were pre-incubated for 10 min., followed by initiation of the enzymatic reaction by adding ATP and the substrate. The reaction mixture was incubated at 30° C. for 30 min. At the end of incubation, the reaction was terminated by transferring 25 μl of the reaction mixture to 150 μl of 10% glutathione Sepharose® slurry (Amersham #27-4574-01) containing 135 mM EDTA. The reaction product was captured on the affinity resin, and washed on a filtration plate (Millipore, MABVNOB50) with phosphate buffered saline for six times to remove free radionucleotide. The incorporation of ^33P into ATF2 was quantified on a microplate scintillation counter (Packard Topcount). Compound inhibition potency on JNK was measured by IC50 value generated from ten concentration inhibition curves fitted into the 3-parameter model: % inhibition=Maximum/(1+(IC50/[Inhibitor])^slope). Data were analyzed on Microsoft Excel for parameter estimation.

The target of another series is Human JNK2α2 (Homo sapiens, UniProt P45984). Described as above. Type of series: biochemical. As to conditions: 1 nM enzyme, 1 μM ATF2, 8 μM ATP (Km), 30° C. for 30 min, ten concentration curves; read-out: IC50 JNK2. The protocol:
as §1

Chain of Human JNK2α2 (P45984 whole entry): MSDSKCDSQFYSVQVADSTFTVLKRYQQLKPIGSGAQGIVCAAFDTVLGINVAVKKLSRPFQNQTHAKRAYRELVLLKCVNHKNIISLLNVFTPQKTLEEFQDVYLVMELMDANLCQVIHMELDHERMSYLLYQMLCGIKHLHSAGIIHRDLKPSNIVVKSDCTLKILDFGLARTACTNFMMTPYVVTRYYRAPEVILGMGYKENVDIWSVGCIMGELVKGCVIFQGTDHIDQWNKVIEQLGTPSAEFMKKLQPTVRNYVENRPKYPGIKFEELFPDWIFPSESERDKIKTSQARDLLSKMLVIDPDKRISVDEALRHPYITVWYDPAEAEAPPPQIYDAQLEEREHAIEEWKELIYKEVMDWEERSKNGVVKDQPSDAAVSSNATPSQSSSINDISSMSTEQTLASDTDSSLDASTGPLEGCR
Chain of Human JNK1α1 (P45983 1-384 isoform P45983-2): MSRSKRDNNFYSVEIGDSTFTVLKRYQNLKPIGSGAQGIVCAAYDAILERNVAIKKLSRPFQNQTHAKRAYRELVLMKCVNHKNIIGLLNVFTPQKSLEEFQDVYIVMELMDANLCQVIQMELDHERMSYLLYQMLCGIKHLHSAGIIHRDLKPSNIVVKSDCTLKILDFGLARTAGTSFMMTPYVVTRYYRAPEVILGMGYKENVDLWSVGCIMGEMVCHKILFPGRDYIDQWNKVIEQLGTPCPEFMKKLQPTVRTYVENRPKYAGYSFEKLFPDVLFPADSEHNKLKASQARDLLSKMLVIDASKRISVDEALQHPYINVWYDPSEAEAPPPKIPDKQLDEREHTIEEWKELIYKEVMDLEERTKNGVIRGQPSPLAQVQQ

Consider `Nc1cc(=O)n([C@@H]2CC[C@@H](O)C2)c2nc(NC3CCCCC3)ncc12` (racemic) [Compound I-1, 5-Amino-2-cyclohexylamino-8-((1R,3R)-3-hydroxy-cyclopentyl)-8H-pyrido[2,3-d]pyrimidin-7-one], for which the melting point – broadly, the temperature, or range, at which the solid turns liquid – fell in the range of 169.5 to 170 °C. On Human JNK1α1, the IC50 (commonly the concentration needed to halve the response being measured) is 11.1 nM. The half-inhibitory concentration (IC50) on Human JNK2α2 is 25.8 nM.
As for `Cc1c(N)c2cnc(N[C@H]3CC[C@H](C(=O)N4CCCC4)CC3)nc2n(C2CCC2)c1=O` [Compound I-9, 5-Amino-8-cyclobutyl-6-methyl-2-[4-(pyrrolidine-1-carbonyl)-cyclohexylamino]-8H-pyrido[2,3-d]pyrimidin-7-one], the melting point lay in the range of 276.6 to 278.4 °C. Besides, at Human JNK1α1, the IC50 came to 34.4 nM. Besides, on Human JNK2α2, the IC50 was 37.7 nM.
For `Nc1cc(=O)n(C2CCC2)c2nc(NC3CCCCC3)ncc12` [Compound I-3, 5-Amino-8-cyclobutyl-2-cyclohexylamino-8H-pyrido[2,3-d]pyrimidin-7-one], in that order: 120 to 121.5 °C, 17.9 nM and 40.3 nM.
Regarding `Nc1cc(=O)n(C2CCCC2)c2nc(N[C@H]3CC[C@H](O)CC3)ncc12` [Compound I-5, 5-Amino-8-cyclopentyl-2-(4-hydroxy-cyclohexylamino)-8H-pyrido[2,3-d]pyrimidin-7-one], the melting point was in the range of 246.5 to 248 °C. Moreover, the IC50 at Human JNK1α1 is 20.5 nM. Moreover, the 50% inhibitory concentration (IC50) at Human JNK2α2 amounted to 43.9 nM.
As for `Nc1cc(=O)n(C2CCCCC2)c2nc(N[C@H]3CC[C@H](C(=O)N4CCOCC4)CC3)ncc12` [Compound I-7, 5-Amino-8-cyclohexyl-2-[4-(morpholine-4-carbonyl)-cyclohexylamino]-8H-pyrido[2,3-d]pyrimidin-7-one], the melting point fell in the range of 185 to 203 °C. In addition, the IC50 at Human JNK1α1 is 31.6 nM. In addition, the IC50 on Human JNK2α2 was found to be 39.7 nM.
